Reference: ChEMBL document CHEMBL1201862, “PubChem BioAssay data set” (2004)
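Assay format: 96-well plates, 48-hour exposure. The concentration for 50% growth inhibition is given as GI50.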 The source made the active and inactive calls. Cut-off read from the data, not from the text of the source: active = GI50 up to about 1.1 µM and inactive = higher.

How the values were obtained:
Assay in all cases: inhibition of tumour cell growth, NCI panel, 48 h
ACHN = tested on: ACHN
CAKI-1 = tested on: CAKI-1
HOP-62 = tested on: HOP-62
HT-29 = tested on: HT-29
Hs-578T = tested on: Hs-578T
K562 = tested on: K562
M14 = tested on: M14
MCF7 = tested on: MCF7
OVCAR-3 = tested on: OVCAR-3
OVCAR-4 = tested on: OVCAR-4
OVCAR-5 = tested on: OVCAR-5
OVCAR-8 = tested on: OVCAR-8
SF-268 = tested on: SF-268
SF-295 = tested on: SF-295
SF-539 = tested on: SF-539
SN12C = tested on: SN12C
SNB-75 = tested on: SNB-75
UACC-257 = tested on: UACC-257
UO-31 = tested on: UO-31
DLD-1 = tested on: DLD-1

Measured: GI50

COC(=O)C1=C(OC(=O)/C(=C/c2ccc(Cl)cc2)c2ccc(Cl)cc2)C(C(=O)OC)[C@@]2(O)[C@@H](C(=O)OC)[C@H](C)C[C@@H]1[C@@H]2C(=O)OC (stereo partly specified)
inactive: ACHN 25.9 µM | CAKI-1 > 100 µM | HOP-62 > 100 µM | HT-29 > 61 µM | Hs-578T 39.4 µM | K562 2.33 µM | M14 > 100 µM | MCF7 58.6 µM | OVCAR-3 > 45.8 µM | OVCAR-4 50.8 µM | OVCAR-5 > 21 µM | OVCAR-8 25.1 µM | SF-268 35 µM | SF-295 3.22 µM | SF-539 > 100 µM | SN12C > 100 µM | SNB-75 > 56 µM | UACC-257 > 83.6 µM | UO-31 > 100 µM

CCCCNc1nc2ccccc2c2c1ncn2CC(C)C
inactive: ACHN > 100 µM | CAKI-1 > 100 µM | HOP-62 > 100 µM | HT-29 > 100 µM | Hs-578T > 100 µM | K562 > 100 µM | M14 > 100 µM | MCF7 > 100 µM | OVCAR-3 > 100 µM | OVCAR-4 > 100 µM | OVCAR-5 > 100 µM | OVCAR-8 > 100 µM | SF-268 > 100 µM | SF-295 > 100 µM | SF-539 > 100 µM | SN12C > 100 µM | SNB-75 > 100 µM | UACC-257 > 100 µM | UO-31 > 100 µM

CC1(C)CC2C(C1=O)C1(C)CCCC2(C)C1=O (stereo unspecified)
inactive: ACHN > 100 µM | CAKI-1 > 100 µM | HOP-62 > 100 µM | HT-29 > 100 µM | Hs-578T > 100 µM | K562 > 100 µM | M14 > 100 µM | MCF7 > 100 µM | OVCAR-3 > 100 µM | OVCAR-4 > 100 µM | OVCAR-5 > 100 µM | OVCAR-8 > 100 µM | SF-268 > 100 µM | SF-295 > 100 µM | SF-539 > 100 µM | SN12C > 100 µM | SNB-75 > 100 µM | UACC-257 > 100 µM | UO-31 > 100 µM

O=[N+]([O-])c1ccc(CNC2=NNS(=O)(=O)c3ccccc32)cc1
inactive: ACHN > 100 µM | CAKI-1 26.6 µM | DLD-1 > 100 µM | HT-29 > 100 µM | K562 27 µM | M14 > 100 µM | OVCAR-3 > 100 µM | OVCAR-4 > 100 µM | OVCAR-5 > 100 µM | OVCAR-8 > 100 µM | SF-268 > 100 µM | SF-295 > 100 µM | SF-539 > 100 µM | SN12C > 100 µM | UACC-257 > 100 µM | UO-31 > 100 µM

O=C1C(=O)N(C(=O)c2ccc(Cl)c(Cl)c2)c2ccc(Cl)cc21
inactive: ACHN > 100 µM | DLD-1 73.5 µM | HT-29 > 100 µM | K562 59.3 µM | M14 > 100 µM | OVCAR-3 56.6 µM | OVCAR-4 64.6 µM | OVCAR-5 > 100 µM | OVCAR-8 > 100 µM | SF-268 > 100 µM | SF-295 > 100 µM | SF-539 > 100 µM | SNB-75 31.8 µM | UO-31 > 100 µM

C[C@]1(O)CC(=O)c2c(c(-c3ccc4cc5c(c(O)c4c3O)C(=O)C[C@@](C)(O)C5)c3cccc(O)c3c2O)C1
inactive: ACHN 4.04 µM | CAKI-1 5.14 µM | HOP-62 3.48 µM | HT-29 5.71 µM | Hs-578T 4.06 µM | K562 11.9 µM | M14 5.56 µM | MCF7 5.53 µM | OVCAR-3 3.71 µM | OVCAR-4 7 µM | OVCAR-5 9.46 µM | OVCAR-8 5.02 µM | SF-268 4.31 µM | SF-295 4.86 µM | SF-539 2.75 µM | SN12C 6.22 µM | SNB-75 7.59 µM | UACC-257 7.36 µM | UO-31 4.16 µM

Clc1ccc(OCC2NC3C=CC32)cn1 (stereo unspecified)
inactive: ACHN > 100 µM | CAKI-1 > 100 µM | HOP-62 > 100 µM | HT-29 50.1 µM | Hs-578T > 100 µM | K562 59.3 µM | M14 > 100 µM | MCF7 55 µM | OVCAR-3 > 100 µM | OVCAR-4 > 100 µM | OVCAR-5 > 100 µM | OVCAR-8 > 100 µM | SF-268 > 100 µM | SF-295 > 100 µM | SF-539 > 100 µM | SN12C > 100 µM | SNB-75 > 100 µM | UACC-257 > 100 µM | UO-31 44.7 µM

CCOC(=O)N/N=C(/N)c1cccc([N+](=O)[O-])c1
inactive: ACHN > 100 µM | CAKI-1 > 100 µM | HOP-62 > 100 µM | HT-29 > 100 µM | Hs-578T > 100 µM | K562 > 100 µM | M14 > 100 µM | MCF7 > 100 µM | OVCAR-3 > 100 µM | OVCAR-4 > 100 µM | OVCAR-5 > 100 µM | OVCAR-8 > 100 µM | SF-268 > 100 µM | SF-295 > 100 µM | SF-539 > 100 µM | SN12C > 100 µM | SNB-75 80.2 µM | UACC-257 > 100 µM | UO-31 > 100 µM

O=C(Oc1ccccn1)c1cc2cc(CCl)ccc2oc1=O
inactive: ACHN 43.8 µM | CAKI-1 28.7 µM | HOP-62 23.7 µM | HT-29 76.7 µM | Hs-578T 21.7 µM | K562 32.7 µM | M14 > 100 µM | MCF7 38.5 µM | OVCAR-3 19.4 µM | OVCAR-4 23 µM | OVCAR-5 37.5 µM | OVCAR-8 35.6 µM | SF-268 20.3 µM | SF-295 68.1 µM | SF-539 50.5 µM | SN12C 25.2 µM | SNB-75 24.8 µM | UACC-257 77.1 µM | UO-31 33.7 µM

O=C1C=CC(=O)N1c1ccc(I)cc1
inactive: ACHN 17.3 µM | CAKI-1 17.5 µM | HOP-62 15.7 µM | HT-29 18.9 µM | Hs-578T 23.4 µM | K562 6.01 µM | M14 16.7 µM | MCF7 17.4 µM | OVCAR-3 20.8 µM | OVCAR-4 20.2 µM | OVCAR-5 23.6 µM | OVCAR-8 31.6 µM | SF-268 27 µM | SF-295 20.5 µM | SF-539 22.5 µM | SN12C 20.6 µM | SNB-75 21.8 µM | UACC-257 18 µM | UO-31 18.9 µM

C#C[C@]1(O)CC[C@H]2[C@@H]3CCc4cc(O)ccc4[C@H]3CC[C@@]21C [ETHINYL ESTRADIOL]
inactive: ACHN 78.7 µM | CAKI-1 52.6 µM | DLD-1 12.6 µM | HT-29 13 µM | OVCAR-3 28 µM | OVCAR-5 85.3 µM | OVCAR-8 30.2 µM | SF-268 44.1 µM | SF-295 19 µM | SF-539 17.6 µM | SN12C 36.8 µM | SNB-75 12.6 µM | UACC-257 41 µM | UO-31 > 10 µM
